# US20060134119A1, “Drugs containing galectin 9” (priority 2003, published 2006)
# Residues, ends and D or L forms follow the SMILES beside them. *: point of attachment. Cbz = O=C(OCc1ccccc1)*; CH2F = FC*
# How the values were obtained:
# CD8+ T cells = test: Apoptosis induction in peripheral blood CD8+ T cells, resting or anti-CD3 Ab-activated; format: cell-based, human; details: galectin (+), 1 μM rGal-9
# Method: (§1) To prepare a well plate coated with anti-CD3 Ab, 24 well palates were incubated with TBS solution (pH 8.0) containing 3 μg/mL anti-CD3 Ab (Inmunotech, Marseille, France) per well at 4° C. overnight, and each well was washed with PBS after removing anti-CD3 Ab solution.
# (§2) Mononuclear leukocyte fractions were isolated from heparinized blood using HISTOPAQUE (Registered trademark, SIGMA). CD4-Positive Isolation Kit (DYNAL, Oslo, Norway) was used for isolation of CD4+ T cells and Dynabeads M-450 CD8 (Registered trademark, DYNAL, Oslo, Norway) for isolation of CD8+ T cells, respectively, according to the manufacturer's instructions.
# (§3) To activate T cells, CD4+ or CD8+ cells at 1×10^6 cells/mL in an RPMI-1640 medium containing 10% FCS were incubated on the plate coated with anti-CD3 Ab for 20 to 24 hr at 37° C. in a 5% CO2 incubator, and incubated with rGal-9 [(His)6-Gal-9(S)] at 37° C. in a 5% CO2 incubator. Then apoptosis assay was conducted as described in (c). That is, cells were incubated with 50 μg/mL PI (SIGMA) at 37° C. for 10 min in the dark. Stained cells were analyzed by flow cytometry (Sandstrom, K. et al., J Immunol Methods, 240: 55 (2000) and Zhang L. et al., Cancer Lett, 142: 129 (1999)).
# (§4) Apoptosis assay was also conducted for non-activated (resting) T cells as described above after incubating them with rGal-9 [(His)6-Gal-9(S)] at 37° C. in a 5% Co2 incubator.
# (§5) For comparison, galectin-1 and -3 treated cells were analyzed.
# (§6) Next, apoptosis induction by Gal-9 in human peripheral blood T cells was examined. T cells were separated into CD4+ and CD8+ T cells followed by incubation in the presence or absence of anti-CD3 Ab. Resting T cells and anti-CD3 Ab-activated T cells were incubated with 1 μM rGal-9.
# CD4 T Cell = test: Apoptosis induction in non-activated normal CD4 T cells (Table 4); format: cell-based; details: 1 μM galectin-9, 1 μM galectin-3
# Method: (§7) For example, measurements of apoptosis induction in the presence of 1 μM galectin-9 are as shown in Table 4 below (also 1 μM for galectin-3 in Table 4).
# MM-RU = test: Induction of cell aggregation in MM-RU; format: cell-based, human; details: controls, at the dose of at least 1 μM
# Method: Recombinant galectin-9 prepared via gene transfer into E. coli was added to MM-RU exogenously, and the efficacy of galectin-9 was then examined. As a result, galectin-9 induced aggregation of MM-RU at the concentration of 0.1 μM or higher. In addition, the galectin-9 efficacy was concentration-dependent, and significant between 0.3-1.0 μM.
# CD4+ T cells = test: Apoptosis induction in peripheral blood CD4+ T cells, resting or anti-CD3 Ab-activated; format: cell-based, human; details: galectin (+), 1 μM rGal-9
# Method: as §1, §2, §3, §4, §5, §6
# CD8 T Cell = test: Apoptosis induction in non-activated normal CD8 T cells (Table 4); format: cell-based; details: 1 μM galectin-9, 1 μM galectin-3
# Method: as §7
# MOLT-4 cells [1] = test: Ca2+ influx, Fluo-3 assay by flow cytometry; format: cell-based, human; details: FIG. 8; for effect on calcium influx induced by Gal-9: 30 mM lactose or sucrose
# Method: Cells (approx. 10^6 to 10^7 cells/mL) in the culture medium (10% FCS, RPMI-1640 containing 10 mM HEPES, pH 7.2) were incubated with fluo-3 AM (final concentration 10 μM, Dojindo, Kumamoto, Japan), an intracellular calcium indicator, at 37° C. for 30 min (Sharp, B. M. et al., Proc. Natl. Acad. Sci. USA, 93: 8294 (1996)). Then the cells were washed and resuspended in the culture medium (final concentration, approx. 2×10^5 cells/mL per sample). Intracellular calcium level was measured by flow cytometry. The resting cells were stimulated at 1 min after their fluorescence intensities were measured.
# Next, sequential measurement was restarted until different stimuli were applied. In lactose inhibition assay, cells were stimulated in the presence of 30 mM lactose. Sucrose (30 mM) was used as a control (Sano, H. et al., J. Imnunol., 165: 2156 (2000)). A23187 (calcium ionophore, final concentration 5 ng/mL, Wako, Osaka, Japan) was used as a positive control.
# MOLT-4 cells [2] = test: Inhibition of Gal-9- or other stimulus-induced apoptosis by lactose, caspase and calpain inhibitors; format: cell-based, human; details: for inhibition of TNF-α-induced apoptosis / inhibition of anti-Fas Ab-induced apoptosis / inhibition of C2 ceramide-induced apoptosis / inhibition of DEX-induced apoptosis: caspase inhibitors; for inhibition of TNF-α-induced apoptosis / inhibition of anti-Fas Ab-induced apoptosis / inhibition of C2 ceramide-induced apoptosis / inhibition of DEX-induced apoptosis / inhibition of Gal-9-induced apoptosis: FIG. 5; for effect on pro-apoptosis activity by Gal-9: 30 mM lactose or sucrose, FIG. 2; for inhibition of Gal-9-induced apoptosis: inhibitor at 10 μM, added 1 hr before Gal-9 stimulation
# Method: MOLT-4 (T cell), Jurkat (T cell), BALL-1 (B cell), THP-1 (acute monocytic leukemia derived cell), and HL60 (acute promyelotic leukemia derived cell) cells were obtained from American Type Culture Collection (ATCC). All the cell lines were maintained in an RPMI-1640 medium (Sigma, St. Louis, US) supplemented with 10% FCS in 5% Co2 at 37° C. Lactose (30 mM) was added to the culture medium to inhibit Gal-9 activity. The same concentration of sucrose was used as a control. Cells were incubated with Gal-9 in the presence of Z-VAD-FMK (pan-caspase inhibitor), Z-YVAD-FMK (caspase-1 inhibitor), Z-IETD-FMK (caspase-8 inhibitor), Z-LEHD-FMK (caspase-9 inhibitor), Z-ABVD-FMK (caspase-lo inhibitor), or Z-LLY-FMK (calpain inhibitor) (BioVision, CA, US), at 10 μM, and the participation of caspase or calpain in the Gal-9-induced apoptosis was examined. Z-FA-FMK (BioVision, CA, US) was used as a control (Vu C. C. et al., J. Biol. Chem., 276: 37602 (2001) and Sweeney E. A. et al., FEBs Lett., 425: 61 (1998)). Each inhibitor was added 1 hr before Gal-9 stimulation. The following agents were purchased from suppliers below: DEX (BioVision, CA, US), anti-Fas Ab (clone CH-11, MBL), TNFα (Genzyme, Cambridge, Mass., US), C2 ceramide (SIGMA), and etoposide (Biovision).
# Jurkat T cells = details: 16 hr incubation with 1 mM galectin-9, PI, FACS
# Method: (§8) Cytotoxicities in Jurkat T cells, K-562 leukemic cells, and normal lymphocytes were measured by flow cytometry analysis using PI. That is, PI invades into the damaged target cells when PI is added for the last 15 min of 16 hr incubation with 1 mM galectin-9. Fluorescence generated by PI is measured by FACS. Untreated cells were used as a negative control group, formalin-fixed cells as a 100% dead cell group, and H2O2 (hydrogen peroxide solution)-treated cells as a positive control group, respectively.
# K-562 leukemic cells = details: 16 hr incubation with 1 mM galectin-9, PI, FACS
# Method: as §8
# normal lymphocytes = details: Normal Lymphocyte; 16 hr incubation with 1 mM galectin-9; PI, FACS
# Method: as §8
# MOLT-4 cells [3] = test: Inhibition of Gal-9- or other stimulus-induced apoptosis by lactose, caspase and calpain inhibitors; format: cell-based, human; details: inhibitor at different concentrations; FIG. 6, FIG. 7
# [4] = CD3 (+) cells activated on anti-CD3 Ab-coated plates
# [5] = CD3 (−) untreated resting cells
molecule,measurement,setting,value
Galectin-3: galectin used for comparison / control,"apoptosis induction, CD8",CD8+ T cells; [4],20.9
same,"apoptosis induction, CD8",CD8+ T cells; [5],14.7
same,"apoptosis induction, CD4 T Cell Resting",CD4 T Cell,10.3
same,aggregation,MM-RU,No obvious aggregation
same,"apoptosis induction, CD4",CD4+ T cells; [4],15.7
same,"apoptosis induction, CD4",CD4+ T cells; [5],9.6
same,"apoptosis induction, CD8 T Cell Resting",CD8 T Cell,15.9
CNc1ccc2oc(C[C@H]3O[C@@]4(CC[C@H]3C)O[C@H]([C@H](C)C(=O)c3ccc[nH]3)[C@H](C)C[C@H]4C)nc2c1C(=O)O [A23187],calcium influx,"MOLT-4 cells [1]; Fluo-3 assay, A23187 final concentration 5 ng/mL",significantly induced
Galectin-1: galectin used for comparison / control,"apoptosis induction, CD8",CD8+ T cells; [4],19
same,"apoptosis induction, CD8",CD8+ T cells; [5],9.6
same,aggregation,MM-RU,No obvious aggregation
same,"apoptosis induction, CD4",CD4+ T cells; [4],13.9
same,"apoptosis induction, CD4",CD4+ T cells; [5],8.1
COC(=O)CC[C@H](NC(=O)[C@H](C)NC(=O)OCc1ccccc1)C(=O)N[C@H](C(=O)N[C@@H](CC(=O)OC)C(=O)CF)C(C)C [Z-AEVD-FMK] (Cbz-AE(OMe)VD(OMe)-CH2F),inhibition of TNF-α-induced apoptosis,MOLT-4 cells [2],inhibited
same,inhibition of anti-Fas Ab-induced apoptosis,MOLT-4 cells [2],inhibited
"OO [H2O2, hydrogen peroxide solution, reference compound]","cytotoxicity, 16 hours",Jurkat T cells,97.7
same,"cytotoxicity, 16 hours",K-562 leukemic cells,99.2
same,"cytotoxicity, 16 hours",normal lymphocytes,96.8
OC[C@H]1O[C@@](CO)(O[C@H]2O[C@H](CO)[C@@H](O)[C@H](O)[C@H]2O)[C@@H](O)[C@@H]1O [sucrose],effect on calcium influx induced by Gal-9,MOLT-4 cells [1],not inhibited
same,effect on pro-apoptosis activity by Gal-9,MOLT-4 cells [2],not
CC(C)CC(NC(=O)OCc1ccccc1)C(=O)NC(CC(C)C)C(=O)NC(Cc1ccc(O)cc1)C(=O)CF (stereo not drawn) [Z-LLY-FMK] (Cbz-Leu-Leu-Tyr-CH2F; configuration not given here),"inhibition of Gal-9-induced apoptosis, dose dependence",MOLT-4 cells [3],in a dose dependent manner
COC(=O)CC[C@H](NC(=O)[C@H](CC(C)C)NC(=O)OCc1ccccc1)C(=O)N[C@@H](Cc1cnc[nH]1)C(=O)N[C@@H](CC(=O)OC)C(=O)CF [Z-LEHD-FMK] (Cbz-LE(OMe)HD(OMe)-CH2F),inhibition of C2 ceramide-induced apoptosis,MOLT-4 cells [2],inhibited
COC(=O)C[C@H](NC(=O)[C@H](C)NC(=O)[C@@H](NC(=O)OCc1ccccc1)C(C)C)C(=O)CF [Z-VAD-FMK] (Cbz-Val-Ala-Asp(OMe)-CH2F),inhibition of C2 ceramide-induced apoptosis,MOLT-4 cells [2],inhibition
same,inhibition of DEX-induced apoptosis,MOLT-4 cells [2],inhibition
same,inhibition of TNF-α-induced apoptosis,MOLT-4 cells [2],inhibition
same,inhibition of anti-Fas Ab-induced apoptosis,MOLT-4 cells [2],inhibition
same,inhibition of Gal-9-induced apoptosis,MOLT-4 cells [2],almost completely inhibited
same,"inhibition of Gal-9-induced apoptosis, dose dependence",MOLT-4 cells [3],in a dose-dependent manner
"OC[C@H]1O[C@@H](O[C@H]2[C@H](O)[C@@H](O)C(O)O[C@@H]2CO)[C@H](O)[C@@H](O)[C@H]1O (some centres unmarked) [lactose, Lactose]",effect on calcium influx induced by Gal-9,MOLT-4 cells [1],inhibited
same,effect on pro-apoptosis activity by Gal-9,MOLT-4 cells [2],almost completely inhibited
CC[C@H](C)[C@H](NC(=O)OCc1ccccc1)C(=O)N[C@@H](CCC(=O)OC)C(=O)N[C@H](C(=O)N[C@@H](CC(=O)OC)C(=O)CF)[C@@H](C)O [Z-IETD-FMK] (Cbz-IE(OMe)TD(OMe)-CH2F),inhibition of TNF-α-induced apoptosis,MOLT-4 cells [2],inhibited
same,inhibition of anti-Fas Ab-induced apoptosis,MOLT-4 cells [2],inhibited
COC(=O)C[C@H](NC(=O)[C@H](C)NC(=O)[C@@H](NC(=O)[C@H](Cc1ccc(O)cc1)NC(=O)OCc1ccccc1)C(C)C)C(=O)CF [Z-YVAD-FMK],inhibition of DEX-induced apoptosis,MOLT-4 cells [2],inhibited
same,inhibition of Gal-9-induced apoptosis,MOLT-4 cells [2],inhibited
same,"inhibition of Gal-9-induced apoptosis, dose dependence",MOLT-4 cells [3],in a dose-dependent manner
